This is an account of results in patent US4289781A, “Anti-psychotic phthalimidine derivatives” (priority 1979, dated 1981).

Data set [1] deals with DA receptors in the brain. The data set is described as follows: Block of apomorphine induced stereotypies in rats (0-3 scale scoring). The data set is classed as in vivo, Male Sprague-Dawley rats. The settings on record: i.p., 60 min prior to apomorphine hydrochloride 1 mg/kg s.c.; dose reducing strength of stereotypies by 50% over 60 min. The text has this:
There are several techniques available to study DA receptor blockade in the brain. One method is based on the ability of anti-psychotics to block the behavioural effects induced by the DA agonist apomorphine. Apomorphine produces a characteristic syndrome in rats and other species consisting of repetitive movements (stereotypies) and hyperactivity which appear to be due to activation of postsynaptic DA receptors in the brain (J Pharm. Pharmacol. 19, 627, 1967; J Neurol. Transm. 40, 97-113, 1977). The stereotypies (chewing, licking, biting) appear mainly to reflect action on DA receptors of the neostriatal system ([…]. Res., 11, 1, 1974) whereas the increased locomotion (hyperactivity) mainly appears to be due to activation of DA receptors in mesolimbic structures (nucleus olfactorium, nucleus accumbens), (J Pharm. Pharmacol. 25, 1003, 1973). Male Sprague-Dawley rats weighing 225-275 g were used. […] The compounds were injected 60 min prior to apomorphine hydrochloride (1 mg/kg) which was injected subcutaneously into the neck. […] Furthermore, apomorphine given s.c. also produced a very consistent hyperactivity. Directly after injection, the animals were placed in the cages, one in each cage. Scoring of the stereotypies were performed by two separate methods. The first scoring system was a modified version of the system introduced by Costall and Naylor (1973). The strength of the stereotypy was scored on a 0-3 scale as follows: |______________________________________ |Score Description of stereotyped behaviour. |______________________________________ |0 No change in behaviour compared to saline controls | No sedation. |1 Discontinuous sniffing. |2 Continuous sniffing. |3 Continuous sniffing. Chewing, biting and licking. |______________________________________ In the second system the number of animals displaying hyperactivity caused by apomorphine were scored. Each group consisted of 6-8 animals. Saline controls were always run simultaneously. […] The ED50 's were calculated from log dose-response curves by the method of least squares from 4-6 dose levels with 6-8 animals per dose level.

Data set [2] relates to DA receptors in the brain. Nature of the data set: Block of apomorphine induced hyperactivity in rats (number of animals displaying hyperactivity). The data set is classed as in vivo, Male Sprague-Dawley rats. Particulars: i.p., 60 min prior to apomorphine hydrochloride 1 mg/kg s.c.; dose reducing number of animals showing hyperactivity by 50% over 60 min. The text has this: There are several techniques available to study DA receptor blockade in the brain. One method is based on the ability of anti-psychotics to block the behavioural effects induced by the DA agonist apomorphine. Apomorphine produces a characteristic syndrome in rats and other species consisting of repetitive movements (stereotypies) and hyperactivity which appear to be due to activation of postsynaptic DA receptors in the brain (J Pharm. Pharmacol. 19, 627, 1967; J Neurol. Transm. 40, 97-113, 1977). The stereotypies (chewing, licking, biting) appear mainly to reflect action on DA receptors of the neostriatal system (J Phychiat. Res., 11, 1, 1974) whereas the increased locomotion (hyperactivity) mainly appears to be due to activation of DA receptors in mesolimbic structures (nucleus olfactorium, nucleus accumbens), (J Pharm. Pharmacol. 25, 1003, 1973).
Male Sprague-Dawley rats weighing 225-275 g were used. […] The compounds were injected 60 min prior to apomorphine hydrochloride (1 mg/kg) which was injected subcutaneously into the neck.
Directly after injection, the animals were placed in the cages, one in each cage. Scoring of the stereotypies were performed by two separate methods. The first scoring system was a modified version of the system introduced by Costall and Naylor (1973). The strength of the stereotypy was scored on a 0-3 scale as follows:
In the second system the number of animals displaying hyperactivity caused by apomorphine were scored. Each group consisted of 6-8 animals. Saline controls were always run simultaneously. ED50 's are in the first scoring system (0-3 scale), the doses which reduce the strength of the stereotypies by 50% over the observation period of 60 min. ED50 's of the second scoring system are the doses which reduce the number of animals showing hyperactivity by 50% over the observation period of 60 min. The ED50 's were calculated from log dose-response curves by the method of least squares from 4-6 dose levels with 6-8 animals per dose level.

For data set [3] the following is noted: experimental animals; cited from earlier work.
The conditions of data set [4]: in vivo; cited from earlier work.

With `O=C1c2ccc(F)cc2CN1C1CCN(Cc2ccccc2)CC1` [Example 1, 2-(4-N-benzylpiperidyl)-5-fluorophthalimidine], the “Stereotypies ED50” value in data set [1] stood at 22.0 µmol/kg. The “Hyperactivity ED50” value in data set [2] is 4.0 µmol/kg.
The matching figures for `O=C1c2ccc(Br)cc2CN1C1CCN(Cc2ccccc2)CC1` [Example 2, 2-(4-N-benzylpiperidyl)-5-bromo phthalimidine]: 17.5 µmol/kg and 14 µmol/kg.
For `O=C1c2ccc(Cl)cc2CN1C1CCN(Cc2ccccc2)CC1` [Example 3, 2-(4-N-benzylpiperidyl)-5-chloro phthalimidine] the same measures were 16.0 µmol/kg and 2.0 µmol/kg.
For `COc1ccc(CN2CCC(N3Cc4cc(Cl)ccc4C3=O)CC2)cc1` [Example 7, 5-chloro-2-[4-N-(4-methoxybenzyl)piperidyl]-phthalimidine] the same measures were 9.5 µmol/kg and 2.2 µmol/kg.
On to `O=C1c2ccc(Br)cc2CN1C1CCN(Cc2ccc(Cl)cc2)CC1` [Example 11, 5-bromo-2-[4-N-(4-chlorobenzyl)-piperidyl]-phthalimidine], for which, in data set [1], the “Stereotypies ED50” value was determined as 11 µmol/kg. The “Hyperactivity ED50” value in data set [2] is 3.4 µmol/kg.
The matching figures for `Cc1ccc(CN2CCC(N3Cc4cc(Br)ccc4C3=O)CC2)cc1` [Example 14]: 6.5 µmol/kg and 1.7 µmol/kg.
For `O=C1c2ccc(Cl)cc2CN1C1CCN(Cc2ccc(Cl)cc2)CC1` [Example 15, 5-chloro-2-[4-N-(4-chlorobenzyl)piperidyl)-phthalimidine] the same measures were 14 µmol/kg and 3.5 µmol/kg.
The matching figures for `Cc1ccc(CN2CCC(N3Cc4cc(Cl)ccc4C3=O)CC2)cc1` [Example 16, 5-chloro-2-[4-N-(4-methylbenzyl)piperidyl]-phthalimidine]: 9 µmol/kg and 0.9 µmol/kg.
As for `CCN1CCCC1CNC(=O)c1cc(S(N)(=O)=O)ccc1OC` (stereo not shown) [Sulpiride], the “Hyperactivity ED50” value in data set [2] came to 45 µmol/kg. Moreover, the catalepsy result in data set [3] is reported as “weak catalepsy”. For the same molecule, the extrapyramidal side effects entry in data set [4] is listed as “weak extrapyramidal side effects”.
